Patent US20100069319A1, “Mercaptopurine derivatives and uses thereof” (priority 2007, published 2010)
Where two headings read alike, the source gives them in different places. Values belong to the molecule of their own block, whether it stands above or below them.

Columns and labels:
Daudi cells = assay: XTT cell proliferation assay; assay type: cell-based; conditions: 16 h
Experimental: (§1) Cell proliferation was determined by the XTT viability assay in 96-well plates, based on the reduction of tetrazolium salt to soluble formazan compounds by living cells. Cells (10,000-15,000 cells/well) were seeded in a 96-well plate. After 16 h incubation with various concentrations of 6-MP, 6-MPR and their S-allylthio-derivatives, 50 μl of XTT/PMS mixture (50 μM PMS, 0.1% XTT in medium) was added onto the cells. After an incubation period of 3-4 h at 37° C. the absorbance of the samples was measured in an ELISA Reader at 450 nm. SDS (1%, 10 μl/well) was added to reference wells before adding the XTT/PMS solution.
(§2) The inhibitory effects of the various prodrugs on Daudi leukemia cell and on monolayer N87 cells were compared. […] XTT was added to the wells for 3 h at 37° C. Cell viability was monitored using an ELISA reader at 450 nm, as described in Materials and Methods.

N87 cells = assay: XTT cell proliferation assay; assay type: cell-based, human; conditions: 16 h
Experimental: as §1, §2

Jurkat = assay: Anti-proliferative concentration IC50 (Table 2); assay type: cell-based, human; conditions: 16 h, tested at 0-100 μM, read-out: Anti-proferative concentration - IC50 (mean ± SE)
Experimental: as §1
(§3) The results of viability and proliferation were expressed as mean values±SD (n=3-6). For each cell line, the results were analyzed using two-way analysis of variance (ANOVA) followed by Bonferroni's posttest for the factors of the drugs used and their various concentrations, considering p<0.05 as significant. IC50 values (mean±SEM) were obtained from the linear range of the viability curve versus drug concentration (XTT assay).
(§4) In particular, cell in suspension, namely, Daudi, HL-60, U937, Molt-4, Jurkat and B-CLL, were tested at prodrug concentration of 0-100 μM, and monolayer cells, namely, Hela HtTA-1, MDR HT-29 and N87, were tested at prodrug concentration of 0-200 μM. in both cases, cell viability was determined by trypan blue dye exclusion assay. Data are presented in Table 2 hereinbelow for 6MP derivatives-treated for 16 h.

U937 = assay: Anti-proliferative concentration IC50 (Table 2); assay type: cell-based, human; conditions: U937, 16 h, tested at 0-100 μM, read-out: Anti-proferative concentration - IC50 (mean ± SE)
Experimental: as §1, §3, §4

Molt-4 = assay: Anti-proliferative concentration IC50 (Table 2); assay type: cell-based; conditions: Molt-4, 16 h, tested at 0-100 μM, read-out: Anti-proferative concentration - IC50 (mean ± SE)
Experimental: as §1, §3, §4

[1] = system: human peripheral blood mononuclear cells (PBMCs); conditions: after 4 days of treatment, read-out: IC50, T-cell mitogen-induced blastogenesis; cited from earlier work
HL-60 = assay: Anti-proliferative concentration IC50 (Table 2); assay type: cell-based, human; conditions: HL-60, 16 h, tested at 0-100 μM, read-out: Anti-proferative concentration - IC50 (mean ± SE)
Experimental: as §1, §3, §4

Hela = assay: Anti-proliferative concentration IC50 (Table 2); assay type: cell-based, human; conditions: 16 h, tested at 0-200 μM, read-out: Anti-proferative concentration - IC50 (mean ± SE)
Experimental: as §1, §3, §4

MDR HT-29 = assay: Anti-proliferative concentration IC50 (Table 2); assay type: cell-based, human; conditions: MDR HT-29, 16 h, tested at 0-200 μM, read-out: Anti-proferative concentration - IC50 (mean ± SE)
Experimental: as §1, §3, §4

N87 = assay: Anti-proliferative concentration IC50 (Table 2); assay type: cell-based, human; conditions: N87, 16 h, tested at 0-200 μM, read-out: Anti-proferative concentration - IC50 (mean ± SE)
Experimental: as §1, §3, §4

Daudi = assay: Anti-proliferative concentration IC50 (Table 2); assay type: cell-based; conditions: 16 h, tested at 0-100 μM, read-out: Anti-proferative concentration - IC50 (mean ± SE)
Experimental: as §1, §3, §4

B-CLL cells = conditions: 48 h, read-out: calculated IC50 for allicin induced-apoptosis; cited from earlier work

- IC50 (Jurkat; Homo sapiens): 99 ± 11.9 µM
- IC50 (U937; Homo sapiens, U-937): > 200 µM
- IC50 (Molt-4; Homo sapiens): 24.8 ± 2.5 µM
SMILES: OC[C@H]1O[C@@H](n2cnc3c(S)ncnc32)[C@H](O)[C@@H]1O [6-MPR, 6-mercaptopurine riboside, reference compound]
- cell proliferation (Daudi cells; 0-100 μM): no significant loss of cell proliferation
- cell proliferation (N87 cells; N87, 0-100 μM): no significant loss of cell proliferation
- proliferation (residual) (N87 cells; N87, 150 μM): ~75%

SMILES: Cn1cnc([N+](=O)[O-])c1Sc1ncnc2nc[nH]c12 [AZ, azathioprine]
- IC50 [1]: 0.23 ± 0.231 µM

- IC50 (HL-60; Homo sapiens): 5.5 ± 0.6 µM
- IC50 (Hela; Homo sapiens): 104 ± 10.2 µM
- IC50 (MDR HT-29; Homo sapiens): 83.8 ± 7.8 µM
- IC50 (U937; Homo sapiens, U-937): 19.7 ± 2.1 µM
- IC50 (Daudi; Homo sapiens): 35.3 ± 4.2 µM
SMILES: C=CCS[S+]([O-])CC=C (stereo not drawn) [Allicin, reference compound]
- IC50 (N87; Homo sapiens): 16.8 ± 3.3 µM
- IC50 (B-CLL cells): 0.02 µM

- IC50 (HL-60): 86.1 ± 9.5 µM
- IC50 (Hela): > 200 µM
- IC50 (Jurkat): 69.1 ± 7.5 µM
- IC50 (MDR HT-29): > 200 µM
- IC50 (U937): 113 ± 10.9 µM
- IC50 (Daudi): 70.8 ± 7.8 µM
- IC50 (Molt-4): 16.9 ± 2.3 µM
SMILES: C=CCSSc1ncnc2c1ncn2[C@@H]1O[C@H](CO)[C@@H](O)[C@H]1O [SA-6MPR, S-allylthio-6-mercaptopurine 9-riboside]
- residual proliferation (Daudi cells; 50 μM): 60%
- residual proliferation (Daudi cells; 100 μM): 25%
- residual proliferation / viability (N87 cells; N87, 50 μM): about 70%
- residual viability (N87 cells; N87, 100 μM): ~55%
- proliferation (N87 cells; N87, 150 μM): complete loss of proliferation
- IC50 (N87): 120 ± 15.6 µM
